The values below come from PMC9099682 (2022).

Assay [1] relates to Pu22 (DNA, G4) TGAGGGTGGGTAGGGTGGGTAA
The assay can be described thus: CD melting at 265 nm. Conditions: K+ 4.5 mM, Na+ (137 mM NaCl, 10 mM Na2HPO4); PBS pH 7.4; 125 µM tPD, 2.5 µM DNA (50 equiv.); Tm 62 to 64 °C.

For assay [2] the test system is unchanged. As to the kind of experiment: CD spectroscopy. Conditions: K+ 4.5 mM, Na+ (137 mM NaCl, 10 mM Na2HPO4); PBS pH 7.4, 40 °C; 125 µM tPD, 2.5 µM DNA; CD band increase at 263 nm.

For the molecule `OC[C@H]1O[C@@H](Oc2cc(O)cc(/C=C/c3ccc(O)cc3)c2)[C@H](O)[C@@H](O)[C@@H]1O`, the ΔTm result in assay [1] is “+2 °C”. In addition, the binding result in assay [2] was “yes”.
